Experimental data published in ChEMBL document CHEMBL2390888, “Identification and synthesis of N-(thiophen-2-yl) benzamide derivatives as BRAF(V600E) inhibitors” (Bioorg Med Chem Lett, 2013).
Calls of active or inactive are those of the source. The rule behind the calls is not given here.

system: Serine/threonine-protein kinase B-raf (Homo sapiens), P15056 [V600E]; assay: Inhibition of BRAF V600E mutant (unknown origin) assessed as inhibition of MEK phosphorylation at 1 uM by ELISA relative to control
Sequence (P15056 whole entry V600E): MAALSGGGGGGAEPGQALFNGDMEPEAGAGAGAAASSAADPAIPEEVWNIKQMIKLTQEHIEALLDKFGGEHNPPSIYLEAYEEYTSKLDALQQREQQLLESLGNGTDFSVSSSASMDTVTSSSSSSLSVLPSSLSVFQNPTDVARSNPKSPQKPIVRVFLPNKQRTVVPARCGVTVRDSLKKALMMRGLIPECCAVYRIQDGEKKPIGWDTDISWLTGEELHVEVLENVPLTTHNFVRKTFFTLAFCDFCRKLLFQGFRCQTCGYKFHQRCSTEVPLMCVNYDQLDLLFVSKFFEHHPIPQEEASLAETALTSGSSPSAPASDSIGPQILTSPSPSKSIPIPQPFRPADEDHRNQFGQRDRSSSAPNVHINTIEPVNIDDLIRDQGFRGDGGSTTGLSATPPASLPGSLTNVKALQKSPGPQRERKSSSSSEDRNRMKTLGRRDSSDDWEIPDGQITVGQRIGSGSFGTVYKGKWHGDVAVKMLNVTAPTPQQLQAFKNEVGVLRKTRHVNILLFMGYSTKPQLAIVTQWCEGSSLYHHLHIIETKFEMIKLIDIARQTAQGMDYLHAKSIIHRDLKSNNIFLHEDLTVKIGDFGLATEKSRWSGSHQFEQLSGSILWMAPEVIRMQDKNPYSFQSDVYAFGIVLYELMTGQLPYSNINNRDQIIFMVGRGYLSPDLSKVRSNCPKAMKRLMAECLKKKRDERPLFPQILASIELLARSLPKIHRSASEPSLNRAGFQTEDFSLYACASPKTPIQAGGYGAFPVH

Row | SMILES | inhibition
1 | CCOC(=O)c1sc(NC(=O)c2ccccn2)c(C#N)c1C | 39%
2 | CCOC(=O)c1sc(NC(=O)c2cccnc2)c(C#N)c1C | 20%
3 | CCOC(=O)c1sc(NC(=O)c2ccc(F)cc2)c(C(=O)Nc2ccccc2)c1C | 66%
4 | CCCS(=O)(=O)Nc1cc(F)c(C(=O)Nc2sc(C(=O)OCC)c(C)c2C#N)c(F)c1 | 34%
5 | CCOC(=O)c1sc(NC(=O)c2ccc(NS(C)(=O)=O)cc2)c(C#N)c1C | inactive
6 | CCOC(=O)c1sc(NC(=O)c2cc(OC)cc(OC)c2)c(C#N)c1C | 60%
7 | CCOC(=O)c1sc(NC(=O)c2ccc(Cl)nc2)c(C#N)c1C | 10%
8 | CCOC(=O)c1sc(NC(=O)c2cccc(NC(C)=O)c2)c(C#N)c1C | 17%
9 | CCOC(=O)c1sc(NC(=O)c2ccncc2)c(C#N)c1C | 22%
10 | CCOC(=O)c1sc(NC(=O)c2ccc(NC(C)=O)cc2)c(C#N)c1C | inactive
11 | CCOC(=O)c1sc(NC(=O)c2ccccc2NS(C)(=O)=O)c(C#N)c1C | inactive
12 | CCOC(=O)c1sc(NC(=O)c2cccc(NS(C)(=O)=O)c2)c(C#N)c1C | inactive

target: Serine/threonine-protein kinase B-raf (Homo sapiens, UniProt P15056, V600E); assay: Inhibition of BRAF V600E mutant (unknown origin) assessed as inhibition of MEK phosphorylation by ELISA
Sequence (P15056 2-766 V600E limits assumed): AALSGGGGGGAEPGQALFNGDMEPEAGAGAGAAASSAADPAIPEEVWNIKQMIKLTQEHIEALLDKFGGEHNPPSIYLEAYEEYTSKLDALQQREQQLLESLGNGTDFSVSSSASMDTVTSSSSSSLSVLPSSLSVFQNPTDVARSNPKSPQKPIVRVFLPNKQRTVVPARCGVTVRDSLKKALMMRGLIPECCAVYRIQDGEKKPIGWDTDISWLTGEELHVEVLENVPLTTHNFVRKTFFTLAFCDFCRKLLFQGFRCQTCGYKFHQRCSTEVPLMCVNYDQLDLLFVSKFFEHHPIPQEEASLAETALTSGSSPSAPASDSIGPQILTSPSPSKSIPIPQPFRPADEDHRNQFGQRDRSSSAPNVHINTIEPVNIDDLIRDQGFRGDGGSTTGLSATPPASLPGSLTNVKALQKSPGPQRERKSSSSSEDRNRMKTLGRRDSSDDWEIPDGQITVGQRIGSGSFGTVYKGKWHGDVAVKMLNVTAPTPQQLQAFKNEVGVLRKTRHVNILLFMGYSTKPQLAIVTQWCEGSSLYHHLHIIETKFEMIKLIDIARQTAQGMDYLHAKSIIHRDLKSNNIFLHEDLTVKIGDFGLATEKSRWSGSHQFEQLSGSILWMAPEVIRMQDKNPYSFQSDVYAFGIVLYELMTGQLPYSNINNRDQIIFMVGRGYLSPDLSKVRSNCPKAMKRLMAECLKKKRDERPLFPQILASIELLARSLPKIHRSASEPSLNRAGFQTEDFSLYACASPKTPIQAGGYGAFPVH

Row | SMILES | IC50 [nM]
13 | CCOC(=O)c1sc(NC(=O)c2ccccc2C)c(C#N)c1C | 2010
14 | CCOC(=O)c1sc(NC(=O)c2ccc(F)cc2)c(C(=O)Nc2ccccc2)c1C | 630
15 | CCOC(=O)c1sc(NC(=O)c2cc(OC)cc(OC)c2)c(C#N)c1C | 770
16 | O=C1NC(=S)NC(=O)C1=Cc1ccc(-c2ccc(Br)cc2)o1 | 470
17 | CCOC(=O)c1sc(NC(=O)c2ccc(OCC)cc2)c(C#N)c1C | 1160
18 | CCOC(=O)c1sc(NC(=O)c2ccc(Cl)c([N+](=O)[O-])c2)c(C#N)c1C | 2160

system: Serine/threonine-protein kinase B-raf (Homo sapiens), P15056 [V600E]; assay: Inhibition of BRAF V600E mutant (unknown origin) assessed as inhibition of MEK phosphorylation at 2 uM by ELISA relative to control

Row | SMILES | inhibition
19 | CCOC(=O)c1sc(NC(=O)c2ccccc2I)c(C(=O)OC)c1C | inactive
20 | CCOC(=O)c1sc(NC(=O)c2ccc(C(=O)OC)cc2)c(C#N)c1C | 54%
21 | CCOC(=O)c1sc(NC(=O)c2ccc(OC)c(OC)c2)c(C#N)c1C | 32%
22 | CCOC(=O)c1sc(NC(=O)c2ccc(Br)cc2)c(C#N)c1C | inactive
23 | CCOC(=O)c1sc(NC(=O)c2ccccc2C)c(C#N)c1C | 52%
24 | CCOC(=O)c1sc(NC(=O)c2ccc(F)cc2)c(C(=O)Nc2ccccc2)c1C | 87%
25 | CCOC(=O)c1sc(NC(=O)c2ccc(OC)cc2)c(C#N)c1C | 15%
26 | CCOC(=O)c1sc(NC(=O)c2cccc([N+](=O)[O-])c2)c(C#N)c1C | 36%
27 | CCOC(=O)c1sc(NC(=O)c2ccc(C(C)(C)C)cc2)c(C#N)c1C | 46%
28 | CCOC(=O)c1sc(NC(=O)c2ccc(C)c(OC)c2)c(C#N)c1C | inactive
29 | CCOC(=O)c1sc(NC(=O)c2ccccc2F)c(C(N)=O)c1C | inactive
30 | CCOC(=O)c1sc(NC(=O)c2ccco2)c(C#N)c1C | inactive
31 | Cc1c(C(=O)OC(C)C)sc(NC(=O)c2ccc(F)cc2)c1C#N | inactive
32 | CCOC(=O)c1sc(NC(=O)c2ccccc2Cl)c(C#N)c1C | inactive
33 | CCOC(=O)c1sc(NC(=O)c2cccc(C)c2)c(C#N)c1C | 50%
34 | CCOC(=O)c1sc(NC(=O)c2cc(OC)cc(OC)c2)c(C#N)c1C | 85%
35 | CCCOC(=O)c1c(NC(=O)c2ccccc2F)sc(C(=O)OCC)c1C | inactive
36 | CCOC(=O)c1sc(NC(=O)c2ccccc2)c(C(=O)OCC)c1C | inactive
37 | CCOC(=O)c1sc(NC(=O)c2ccc(C)cc2)c(C#N)c1C | 48%

Row | SMILES | inhibition
38 | CCOC(=O)c1sc(NC(=O)c2ccccc2F)c(C#N)c1C | 51%
39 | CCOC(=O)c1sc(NC(=O)c2cccc(OC)c2)c(C#N)c1C | 13%
40 | CCOC(=O)c1sc(NC(=O)c2ccccc2OC)c(C#N)c1C | 42%
41 | COC(=O)c1sc(NC(=O)c2ccccc2OC)c(C#N)c1C | inactive
42 | COC(=O)c1sc(NC(=O)c2cc(OC)cc(OC)c2)c(C#N)c1C | inactive
43 | CCOC(=O)c1sc(NC(=O)c2ccc(Cl)c(Cl)c2)c(C#N)c1C | 36%
44 | CCOc1ccc(C(=O)Nc2sc(C(=O)OC(C)C)c(C)c2C#N)cc1 | inactive
45 | CCOC(=O)c1sc(NC(=O)c2cccc(C#N)c2)c(C#N)c1C | 40%
46 | Cc1c(C(=O)OC(C)C)sc(NC(=O)c2ccc(Cl)c(Cl)c2)c1C#N | 42%
47 | COC(=O)c1sc(NC(=O)c2cccc(C)c2)c(C#N)c1C | inactive
48 | CCOC(=O)c1sc(NC(=O)c2ccc(Cl)c(F)c2)c(C#N)c1C | 59%
49 | CCOC(=O)c1sc(NC(=O)c2cccc(Cl)c2)c(C#N)c1C | 57%
50 | CCOC(=O)c1sc(NC(=O)c2ccc(Cl)c(C(F)(F)F)c2)c(C#N)c1C | 60%
51 | CCOC(=O)c1sc(NC(=O)c2ccc(Cl)cc2)c(C(N)=O)c1C | 26%
52 | CCOC(=O)c1sc(NC(=O)c2ccc(OCC)cc2)c(C#N)c1C | 69%
53 | CCOC(=O)c1sc(NC(=O)c2ccc(Cl)c([N+](=O)[O-])c2)c(C#N)c1C | 51%
54 | CCOC(=O)c1sc(NC(=O)c2ccc(Cl)cc2)c(C#N)c1C | 60%
55 | CCOC(=O)c1sc(NC(=O)c2ccc(N3CCN(C)CC3)cc2)c(C#N)c1C | inactive
